According to US20260355196A1, “INHIBITORS AND DEGRADERS OF PIP4K PROTEIN” (Larkspur Biosciences, Inc., priority 2023, published 2026):
Where two headings read alike, the source gives them in different places.

Molecular target: T1, PIP4K2C (Homo sapiens, UniProt Q8TBX8)
T1 sequence (Q8TBX8 1-421): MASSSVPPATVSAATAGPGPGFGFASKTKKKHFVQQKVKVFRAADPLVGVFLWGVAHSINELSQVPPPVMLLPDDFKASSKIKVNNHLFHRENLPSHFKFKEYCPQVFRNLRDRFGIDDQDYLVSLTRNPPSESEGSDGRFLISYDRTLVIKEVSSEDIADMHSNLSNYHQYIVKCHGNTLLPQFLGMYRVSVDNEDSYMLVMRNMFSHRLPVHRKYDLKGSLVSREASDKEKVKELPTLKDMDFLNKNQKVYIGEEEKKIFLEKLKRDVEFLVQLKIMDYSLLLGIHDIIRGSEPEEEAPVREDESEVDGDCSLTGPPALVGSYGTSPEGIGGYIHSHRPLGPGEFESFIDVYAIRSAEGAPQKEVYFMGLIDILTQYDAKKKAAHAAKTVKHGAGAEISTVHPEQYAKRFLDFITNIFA
Assay: HiBiT PIP4K2C degradation assay in MOLT-4 cells (endogenous PIP4K2C C-terminally tagged with HiBiT)
Assay type: cell-based
Set-up: untagged in primary human PBMCs and monocyte-derived dendritic cells
Summary of the method: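 Luminescent HiBiT lytic readout of residual PIP4K2C-HiBiT (CRISPR knock-in, MOLT-4, phenol red-free RPMI-1640 + 10% FBS). Cells exposed 6 or 24 h at 37 C to compound, top 10 micromolar, 3-fold, 10 points, duplicate. Hill fit (Levenberg-Marquardt) gives DC50.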

[1] = 6 hours of incubation time, rather than 24 hours; MOLT-4, top concentration 10 micromolar; read-out: HiBIT-degradation MOLT4 PIP4k2C DC50 (6 hours, marked *)
[2] = read-out: HiBIT-degradation MOLT4 PIP4k2C DC50 (6 hours, marked *); 6 hours of incubation time, rather than 24 hours; MOLT-4, top concentration 10 micromolar

Compound	DC50 [1]	DC50 [2]
O=C1CCC(Nc2ccc(N3CCN(C[C@H]4CC[C@H](CNC(=O)[C@H]5CC[C@H](Nc6ncc(F)c(-c7cccc(N8CCCOC8=O)c7)n6)CC5)CC4)CC3)c(F)c2)C(=O)N1 (stereo partly drawn) [Compound 591, trans-(1r,4R)—N-(((1r,4R)-4-((4-(4-((2,6-dioxopiperidin-3-yl)amino)-2-fluorophenyl)piperazin-1-yl)methyl)cyclohexyl)methyl)-4-((5-fluoro-4-(3-(2-oxo-1,3-oxazinan-3-yl)phenyl)pyrimidin-2-yl)amino)cyclohexane-1-carboxamide]	< 0.5 µM	–
O=C1CCC(Nc2ccc(N3CCC(N4CCC(C(=O)N[C@H]5CC[C@H](Nc6ncc(F)c(-c7cccc(N8CCOC8=O)c7)n6)CC5)CC4)CC3)c(F)c2)C(=O)N1 (stereo partly drawn) [Compound 596, trans-1′-(4-((2,6-dioxopiperidin-3-yl)amino)-2-fluorophenyl)-N-(4-((5-fluoro-4-(3-(2-oxooxazolidin-3-yl)phenyl)pyrimidin-2-yl)amino)cyclohexyl)-[1,4′-bipiperidine]-4-carboxamide]	< 0.5 µM	–
O=C1CCC(Nc2ccc(N3CCC(N4CCC(C(=O)N[C@H]5CC[C@H](Nc6ncc(F)c(-c7cccc(N8CCCOC8=O)c7)n6)CC5)CC4)CC3)c(F)c2)C(=O)N1 (stereo partly drawn) [Compound 597, trans-1′-(4-((2,6-dioxopiperidin-3-yl)amino)-2-fluorophenyl)-N-(4-((5-fluoro-4-(3-(2-oxo-1,3-oxazinan-3-yl)phenyl)pyrimidin-2-yl)amino)cyclohexyl)-[1,4′-bipiperidine]-4-carboxamide]	< 0.5 µM	–
O=C1CCC(Nc2ccc(N3CCC(N4CCC(C(=O)N[C@H]5CC[C@H](Nc6ncc(F)c(-c7cccc(-n8ccccc8=O)c7)n6)CC5)CC4)C(F)(F)C3)c(F)c2)C(=O)N1 (stereo partly drawn) [Compound 598, trans-1′-(4-((2,6-dioxopiperidin-3-yl)amino)-2-fluorophenyl)-3′,3′-difluoro-N-(4-((5-fluoro-4-(3-(2-oxopyridin-1(2H)-yl)phenyl)pyrimidin-2-yl)amino)cyclohexyl)-[1,4′-bipiperidine]-4-carboxamide]	< 0.5 µM	–
O=C1CCC(Nc2ccc(N3CCC(N4CCC(C(=O)N[C@H]5CC[C@H](Nc6ncc(F)c(-c7cccc(-c8ccc[nH]c8=O)c7)n6)CC5)CC4)C(F)(F)C3)c(F)c2)C(=O)N1 (stereo partly drawn) [Compound 599, 1′-(4-((2,6-dioxopiperidin-3-yl)amino)-2-fluorophenyl)-3′,3′-difluoro-N-(trans-4-((5-fluoro-4-(3-(2-oxo-1,2-dihydropyridin-3-yl)phenyl)pyrimidin-2-yl)amino)cyclohexyl)-[1,4′-bipiperidine]-4-carboxamide]	< 0.5 µM	–
O=C1CCC(Nc2ccc(N3CCN([C@H]4CC[C@H](C(=O)N[C@H]5CC[C@H](Nc6ncc(F)c(-c7cccc(-c8ccccc8)c7)n6)CC5)CC4)CC3)c(F)c2)C(=O)N1 (stereo partly drawn) [Compound 604, trans-(1r,4R)—N-((1r,4R)-4-((4-([1,1′-biphenyl]-3-yl)-5-fluoropyrimidin-2-yl)amino)cyclohexyl)-4-(4-(4-((2,6-dioxopiperidin-3-yl)amino)-2-fluorophenyl)piperazin-1-yl)cyclohexane-1-carboxamide]	< 0.5 µM	–
O=C1CCC(Nc2ccc(N3CCN([C@H]4CC[C@H](C(=O)N[C@H]5CC[C@H](Nc6ncc(F)c(-c7cccc(N8CCOCC8)c7)n6)CC5)CC4)CC3)c(F)c2)C(=O)N1 (stereo partly drawn) [Compound 605, trans-(1r,4R)-4-(4-(4-((2,6-dioxopiperidin-3-yl)amino)-2-fluorophenyl)piperazin-1-yl)-N-((1r,4R)-4-((5-fluoro-4-(3-morpholinophenyl)pyrimidin-2-yl)amino)cyclohexyl)cyclohexane-1-carboxamide]	< 0.5 µM	–
O=C1CCC(Nc2ccc(N3CCN([C@H]4CC[C@H](C(=O)N[C@H]5CC[C@H](Nc6ncc(Cl)c(-c7cccc(-n8ccccc8=O)c7)n6)CC5)CC4)CC3)c(F)c2)C(=O)N1 (stereo partly drawn) [Compound 632, trans-(1r,4R)—N-((1r,4R)-4-((5-chloro-4-(3-(2-oxopyridin-1 (2H)-yl)phenyl)pyrimidin-2-yl)amino)cyclohexyl)-4-(4-(4-((2,6-dioxopiperidin-3-yl)amino)-2-fluorophenyl)piperazin-1-yl)cyclohexane-1-carboxamide]	< 0.5 µM	–
O=C1CCC(Nc2ccc(C3CCN(C4CC5(CC(OC(=O)N6CCC(Nc7ncc(F)c(-c8cccc(-n9ccccc9=O)c8)n7)CC6)C5)C4)CC3)c(F)c2)C(=O)N1 (centres unmarked) [Compound 633, 6-(4-(4-((2,6-dioxopiperidin-3-yl)amino)-2-fluorophenyl)piperidin-1-yl)spiro[3.3]heptan-2-yl 4-((5-fluoro-4-(3-(2-oxopyridin-1 (2H)-yl)phenyl)pyrimidin-2-yl)amino)piperidine-1-carboxylate]	< 0.5 µM	–
Cn1nc(N2CCC(=O)NC2=O)c2ccc(N3CCN(CC4CCN(C(=O)O[C@H]5CC[C@H](Nc6ncc(F)c(-c7cccc(-c8ccccc8)c7)n6)CC5)CC4)CC3)cc21 [Compound 634, trans-4-((4-([1,1′-biphenyl]-3-yl)-5-fluoropyrimidin-2-yl)amino)cyclohexyl 4-((4-(3-(2,4-dioxotetrahydropyrimidin-1 (2H)-yl)-1-methyl-1H-indazol-6-yl)piperazin-1-yl)methyl)piperidine-1-carboxylate]	–	< 0.5 µM
Cn1nc(N2CCC(=O)NC2=O)c2ccc(C3CCN(CC4(O)CCN(C(=O)O[C@H]5CC[C@H](Nc6ncc(F)c(-c7cccc(-c8ccccc8)c7)n6)CC5)CC4)CC3)cc21 [Compound 635, trans-4-((4-([1,1′-biphenyl]-3-yl)-5-fluoropyrimidin-2-yl)amino)cyclohexyl 4-((4-(3-(2,4-dioxotetrahydropyrimidin-1 (2H)-yl)-1-methyl-1H-indazol-6-yl)piperidin-1-yl)methyl)-4-hydroxypiperidine-1-carboxylate]	< 0.5 µM	–
Cn1nc(N2CCC(=O)NC2=O)c2ccc(C3CCN(CC4CCN(C(=O)O[C@H]5CC[C@H](Nc6ncc(F)c(-c7cccc(-c8ccccc8)c7)n6)CC5)CC4)CC3)cc21 [Compound 636, trans-4-((4-([1,1′-biphenyl]-3-yl)-5-fluoropyrimidin-2-yl)amino)cyclohexyl 4-((4-(3-(2,4-dioxotetrahydropyrimidin-1 (2H)-yl)-1-methyl-1H-indazol-6-yl)piperidin-1-yl)methyl)piperidine-1-carboxylate]	< 0.5 µM	–
O=C1CCC(Nc2ccc(N3CCC(N4CC5(CC(OC(=O)N6CCC(Nc7ncc(F)c(-c8cccc(-n9ccccc9=O)c8)n7)CC6)C5)C4)CC3)c(F)c2)C(=O)N1 (centres unmarked) [Compound 637, 2-(1-(4-((2,6-dioxopiperidin-3-yl)amino)-2-fluorophenyl)piperidin-4-yl)-2-azaspiro[3.3]heptan-6-yl 4-((5-fluoro-4-(3-(2-oxopyridin-1 (2H)-yl)phenyl)pyrimidin-2-yl)amino)piperidine-1-carboxylate]	< 0.5 µM	–
O=C1CCC(Nc2ccc(C3CCN(C[C@H]4CC[C@H](COC(=O)N5CCC(Nc6ncc(F)c(-c7cccc(-c8ccccc8)c7)n6)CC5)CC4)CC3)c(F)c2)C(=O)N1 (stereo partly drawn) [Compound 640, trans-(4-((4-(4-((2,6-dioxopiperidin-3-yl)amino)-2-fluorophenyl)piperidin-1-yl)methyl)cyclohexyl)methyl 4-((4-([1,1′-biphenyl]-3-yl)-5-fluoropyrimidin-2-yl)amino)piperidine-1-carboxylate]	< 0.5 µM	–
O=C1CCC(Nc2ccc(C3CCN(CCC4(O)CCN(C(=O)O[C@H]5CC[C@H](Nc6ncc(F)c(-c7cccc(-n8ccccc8=O)c7)n6)CC5)CC4)CC3)c(F)c2)C(=O)N1 (stereo partly drawn) [Compound 641, trans-4-((5-fluoro-4-(3-(2-oxopyridin-1 (2H)-yl)phenyl)pyrimidin-2-yl)amino)cyclohexyl 4-(2-(4-(4-((2,6-dioxopiperidin-3-yl)amino)-2-fluorophenyl)piperidin-1-yl)ethyl)-4-hydroxypiperidine-1-carboxylate]	–	< 0.5 µM
Cn1nc(C2CCC(=O)NC2=O)c2ccc(N3CCN(CC4(O)CCN(C(=O)O[C@H]5CC[C@H](Nc6ncc(F)c(-c7cccc(-c8ccccc8)c7)n6)CC5)CC4)CC3)cc21 (stereo partly drawn) [Compound 642, trans-4-((4-([1,1′-biphenyl]-3-yl)-5-fluoropyrimidin-2-yl)amino)cyclohexyl 4-((4-(3-(2,6-dioxopiperidin-3-yl)-1-methyl-1H-indazol-6-yl)piperazin-1-yl)methyl)-4-hydroxypiperidine-1-carboxylate]	–	< 0.5 µM
Cn1nc(C2CCC(=O)NC2=O)c2ccc(N3CCN(CC4CCN(C(=O)O[C@H]5CC[C@H](Nc6ncc(F)c(-c7cccc(-c8ccccc8)c7)n6)CC5)CC4)CC3)cc21 (stereo partly drawn) [Compound 643, trans-4-((4-([1,1′-biphenyl]-3-yl)-5-fluoropyrimidin-2-yl)amino)cyclohexyl 4-((4-(3-(2,6-dioxopiperidin-3-yl)-1-methyl-1H-indazol-6-yl)piperazin-1-yl)methyl)piperidine-1-carboxylate]	< 0.5 µM	–
